Several values for one entry are separate records, joined by “and”; a condition that tells them apart may be missing. Identical values can stand only once.
What was measured:
[1] = system: Src Thr338Ile; experiment: Inhibition of Src gatekeeper mutant; format: biochemical, chicken
Text: (§1) Kinase domain constructs of human c-Abl (residues 229-512), chicken c-Src (residues 251-533 and residues 83-533), murine Lck (residues 227-509), and human Hck (residues 166-445) were expressed as previously described (Seeliger, Young et al. 2005; Seeliger, Nagar et al. 2007; the entire contents of each of which are incorporated by reference herein). Mutations were introduced into chicken c-Src (residues 251-533) (T338I, C277Q, L297M) by site-directed mutagenesis and verified by DNA sequencing.
(§2) For the FRET-based endpoint assay, kinase assays were performed using Invitrogen's Z′-LYTE kinase assay using the Tyr 02 substrate peptide (based upon the optimal Abl substrate peptide […]) according to the manufacturer's instructions. Assays were performed at near KM ATP concentrations for full-length c-Src and full-length c-Src T338I-50 μM and 7 μM, respectively.

[2] = target: T1, Src kinase domain (chicken c-Src residues 251-533) (Gallus gallus, UniProt P00523); experiment: Continuous spectrophotometric kinase activity assay; format: biochemical; conditions: for IC50: Src kinase domain
T1 construct: chicken c-Src (residues 251-533 and residues 83-533); made in house
Text: as §1
(§3) In vitro kinase inhibition assays were performed using either a continuous spectrophotometric assay or a FRET-based endpoint assay.
(§4) The original characterization of kinase inhibition was performed with a commercial kinase assay that relies on a fluorescently labeled peptide kinase substrate (Z-LYTE, Invitrogen). For further characterization, a continuous spectrophotometric kinase activity assay was employed that is easily adapted to different substrate peptides as well as a wider range of peptide and ATP concentrations.

[3] = system: 3T3 cells (src−/−) stably transfected with c-Src Y529F; experiment: Global phosphotyrosine Western blot (4G10) in c-Src Y529F-transfected cells; format: cell-based, murine
Experimental: Cells were cultured in 48-well tissue culture plates in DMEM+10% FBS until they reached confluence. After removing serum-containing medium, cells were washed with serum-free DMEM, and small molecule inhibitor in serum-free DMEM with 2% DMSO was added to each well and incubated overnight. After incubation with compound, cells were washed once with PBS and lysed in Cell Extraction Buffer (Invitrogen), a modified RIPA buffer, supplemented with PMSF and protease inhibitors according to the manufacturer's instruction. Cell lysates were quantified by BCA assay (Pierce Biotechnology) and an equivalent amount of lysate was loaded into each lane of a 4-12% polyacrylamide gel, and separated by SDS-PAGE. Separated proteins were transferred onto a PVDF membrane, and blocked for one hour with 5% BSA in TBST buffer. The membrane was then incubated overnight at 4° C. with 4G10 anti-phosphotyrosine antibody (Millipore) and a β-tubulin antibody (Sigma) as a loading control. Fluorescent anti-mouse and anti-rabbit secondary antibodies (LI-COR) were added prior to imaging the membrane.
Having obtained macrocycle Src kinase inhibitors with nanomolar in vitro potency, the potency for inhibition of Src kinase activity in living cells was assessed. Since intracellular Src kinase signaling is complex and tightly regulated, a cell culture line transfected with a constitutively active form of murine c-Src was chosen. 3T3 cells (src−/−) stably transfected with c-Src Y529F were compared to 3T3 cells (src−/−) transfected with empty vector. Anti-phosphotryosine Western blotting with the 4G10 antibody (Millipore) indicated a marked difference between global phosphotyrosine levels in the c-Src Y529F transfected cells compared to those transfected with empty vector; in fact, almost all detectable intracellular phosphotyrosine in the Src-transfected cell line was a result of c-Src Y529F and downstream signaling (FIG. 23, upper panel, compare lanes 2 and 3, transfected and trated with DMSO, against lanes 8 and 9, transfected with empty vector).
Briefly, cells were seeded in a 48-well plate and grown to confluence in Dulbecco's Modified Eagle Medium (DMEM) supplemented with 10% fetal bovine serum (FBS). Individual wells were then treated with 10 or 100 μM concentration of macrocycle in serum-free DMEM overnight. After removing the small molecule and washing with phosphate-buffered saline, cells were lysed in radioimmunoprecipitation assay (RIPA) buffer, and global phosphotyrosine levels were quantified by Western blot.

[4] = target: T2, full-length chicken c-Src (Gallus gallus, UniProt P00523); experiment: Z'-LYTE kinase assay (Tyr 02 substrate peptide), full-length c-Src; format: biochemical; conditions: for IC50: full-length chicken c-Src, ATP near KM (50 μM)
T2 construct: assayed against full-length chicken c-Src
Experimental: as §2
Derivatives of MC4 were synthesized by Fmoc solid-phase peptide synthesis and assayed against full-length chicken c-Src using Invitrogen's Z′-LYTE kinase assay. […] Holding the amino acids at the A and C positions constant, variants of MC4 containing phenylalanine, cyclohexylalanine, pentafluorophenylalanine, and N-methyl-phenylalanine at the B position in place of furylalanine were synthesized and assayed.

[5] = target: p38α-MAPKAPK2 kinase cascade (P38α-MK2) (Homo sapiens, UniProt P49137+Q16539); experiment: Z'-LYTE kinase cascade assay (Invitrogen SelectScreen); format: biochemical
Sequence of p38α-MAPKAPK2 kinase cascade (P38α-MK2) (Q16539 whole entry): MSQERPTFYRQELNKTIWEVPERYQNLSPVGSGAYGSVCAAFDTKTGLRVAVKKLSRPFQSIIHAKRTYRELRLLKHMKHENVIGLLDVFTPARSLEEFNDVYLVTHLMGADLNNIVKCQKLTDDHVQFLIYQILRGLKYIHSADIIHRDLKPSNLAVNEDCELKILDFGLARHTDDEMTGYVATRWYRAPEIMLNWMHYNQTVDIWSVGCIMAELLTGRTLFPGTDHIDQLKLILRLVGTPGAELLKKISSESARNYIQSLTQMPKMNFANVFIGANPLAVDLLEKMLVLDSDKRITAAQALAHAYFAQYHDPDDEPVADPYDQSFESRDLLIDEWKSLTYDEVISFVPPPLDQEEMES
Sequence of p38α-MAPKAPK2 kinase cascade (P38α-MK2) (P49137 whole entry): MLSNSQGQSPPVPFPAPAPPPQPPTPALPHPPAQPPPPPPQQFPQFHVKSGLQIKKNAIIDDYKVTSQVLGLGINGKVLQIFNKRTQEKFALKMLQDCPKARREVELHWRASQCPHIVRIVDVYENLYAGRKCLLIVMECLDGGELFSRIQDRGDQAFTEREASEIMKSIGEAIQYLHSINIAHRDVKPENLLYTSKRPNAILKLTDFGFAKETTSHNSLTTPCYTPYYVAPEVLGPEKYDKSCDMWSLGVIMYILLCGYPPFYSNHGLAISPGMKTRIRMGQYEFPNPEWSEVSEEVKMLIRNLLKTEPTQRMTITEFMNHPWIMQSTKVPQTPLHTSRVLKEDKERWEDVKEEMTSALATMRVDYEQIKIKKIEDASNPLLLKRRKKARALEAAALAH
Text: (§5) Macrocycles A10-B1-C11-D5 and A10-B8-C11-D5 were enriched 2- to 6-fold upon selection for binding Akt3, MAPKAPK2, Pim1, and VEGFR2 (FIG. 6). These two macrocycles are structurally similar, sharing nitrophenylalanine (A10) and cyclohexylstatine (C11) building blocks as well as the same lysine scaffold (D5), and differ only at the B building block with either furylalanine (B1) or cyclohexylalanine (B8) (FIG. 6). For assay purposes, the macrocycles were synthesized with C-terminal PEG-diamine linkers to aid solubility, and then tested for the ability to inhibit Akt3, MAPKAPK2, Pim1 and VEGFR2.
(§6) Src IC50 determinations and single-point inhibition measurements were performed using Invitrogen's Z′-LYTE Tyr 02 assay kit according to the manufacturer's protocols. All kinase assays were performed at ATP concentrations near KM,ATP values, except where noted otherwise. Active human Src kinase was obtained from Millipore. For kinome profiling and IC50 determinations against non-Src kinases, compounds were submitted to Invitrogen's SelectScreen Kinase Profiling Service.

[6] = target: Akt3 (Homo sapiens, UniProt Q9Y243); experiment: Z'-LYTE kinase assay (Invitrogen SelectScreen); format: biochemical
Sequence of Akt3 (Q9Y243 whole entry): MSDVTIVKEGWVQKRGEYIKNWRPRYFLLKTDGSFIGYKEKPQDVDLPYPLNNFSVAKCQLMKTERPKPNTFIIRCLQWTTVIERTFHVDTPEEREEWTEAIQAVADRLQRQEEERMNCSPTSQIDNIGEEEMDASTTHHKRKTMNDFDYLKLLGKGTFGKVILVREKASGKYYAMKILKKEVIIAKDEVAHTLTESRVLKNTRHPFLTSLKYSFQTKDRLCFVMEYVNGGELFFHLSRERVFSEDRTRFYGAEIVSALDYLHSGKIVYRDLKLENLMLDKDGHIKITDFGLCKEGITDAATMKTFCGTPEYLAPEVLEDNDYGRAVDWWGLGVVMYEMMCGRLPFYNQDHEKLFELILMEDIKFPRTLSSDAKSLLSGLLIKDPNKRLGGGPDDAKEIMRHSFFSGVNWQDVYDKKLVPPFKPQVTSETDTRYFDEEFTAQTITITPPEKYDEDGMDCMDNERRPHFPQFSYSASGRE
Text: as §5, §6

[7] = target: Pim1 (Homo sapiens, UniProt P11309); experiment: Z'-LYTE kinase assay (Invitrogen SelectScreen); format: biochemical; conditions: for IC50: Pim1
Sequence of Pim1 (P11309 whole entry): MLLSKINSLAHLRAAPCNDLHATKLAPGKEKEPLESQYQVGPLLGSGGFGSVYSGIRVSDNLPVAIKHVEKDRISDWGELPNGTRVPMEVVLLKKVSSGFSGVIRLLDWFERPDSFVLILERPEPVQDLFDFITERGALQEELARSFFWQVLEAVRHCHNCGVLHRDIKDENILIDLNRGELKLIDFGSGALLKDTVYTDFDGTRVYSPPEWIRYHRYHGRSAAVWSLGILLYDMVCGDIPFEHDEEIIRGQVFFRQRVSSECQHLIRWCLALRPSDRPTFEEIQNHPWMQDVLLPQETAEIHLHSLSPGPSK
Text: as §5, §6

[8] = target: MAPKAPK2 (MK2) (Homo sapiens, UniProt P49137); experiment: Z'-LYTE kinase assay (Invitrogen SelectScreen); format: biochemical; conditions: for IC50: MK2 (MAPKAPK2)
Sequence of MAPKAPK2 (MK2) (P49137 whole entry): as the sequence (P49137 whole entry) above
Text: as §5, §6

[9] = target: VEGFR2 (KDR) (Homo sapiens, UniProt P35968); experiment: Z'-LYTE kinase assay (Invitrogen SelectScreen); format: biochemical
Sequence of VEGFR2 (KDR) (P35968 20-1356): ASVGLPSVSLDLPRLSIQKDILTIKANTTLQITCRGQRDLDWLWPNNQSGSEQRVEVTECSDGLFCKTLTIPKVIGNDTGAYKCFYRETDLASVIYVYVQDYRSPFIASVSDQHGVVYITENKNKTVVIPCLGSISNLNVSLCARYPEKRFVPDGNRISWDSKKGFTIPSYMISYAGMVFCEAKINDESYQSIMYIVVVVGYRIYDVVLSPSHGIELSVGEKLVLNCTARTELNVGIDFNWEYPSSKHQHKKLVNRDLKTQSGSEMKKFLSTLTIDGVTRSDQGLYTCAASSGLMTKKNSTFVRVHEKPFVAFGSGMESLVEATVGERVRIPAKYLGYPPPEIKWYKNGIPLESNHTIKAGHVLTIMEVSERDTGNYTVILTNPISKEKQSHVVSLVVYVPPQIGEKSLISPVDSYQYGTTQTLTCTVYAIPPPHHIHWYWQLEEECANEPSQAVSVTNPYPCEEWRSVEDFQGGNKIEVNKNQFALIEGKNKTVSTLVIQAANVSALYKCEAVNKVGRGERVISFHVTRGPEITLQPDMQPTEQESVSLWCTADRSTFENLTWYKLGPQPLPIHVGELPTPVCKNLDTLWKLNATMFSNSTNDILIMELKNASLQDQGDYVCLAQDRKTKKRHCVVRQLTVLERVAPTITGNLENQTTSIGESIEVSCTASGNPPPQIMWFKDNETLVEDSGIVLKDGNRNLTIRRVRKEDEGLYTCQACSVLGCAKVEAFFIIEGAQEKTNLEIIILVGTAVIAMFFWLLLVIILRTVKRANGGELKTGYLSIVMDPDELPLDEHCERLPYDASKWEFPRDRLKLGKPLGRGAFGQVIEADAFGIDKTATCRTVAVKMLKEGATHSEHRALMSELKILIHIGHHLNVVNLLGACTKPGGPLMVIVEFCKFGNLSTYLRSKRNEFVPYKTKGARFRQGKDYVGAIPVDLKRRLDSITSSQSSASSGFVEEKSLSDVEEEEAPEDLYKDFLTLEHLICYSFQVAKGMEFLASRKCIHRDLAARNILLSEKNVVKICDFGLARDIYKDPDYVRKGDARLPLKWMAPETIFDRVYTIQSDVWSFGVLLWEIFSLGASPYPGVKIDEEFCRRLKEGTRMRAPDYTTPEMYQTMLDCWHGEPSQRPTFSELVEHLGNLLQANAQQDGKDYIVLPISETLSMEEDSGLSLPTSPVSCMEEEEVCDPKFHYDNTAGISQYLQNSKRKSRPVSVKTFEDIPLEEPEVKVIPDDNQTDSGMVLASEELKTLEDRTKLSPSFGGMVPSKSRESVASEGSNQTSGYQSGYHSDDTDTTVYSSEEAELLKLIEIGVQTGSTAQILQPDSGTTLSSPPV
Text: as §5, §6

[10] = target: T3, Abl (Homo sapiens, UniProt P00519); experiment: Continuous spectrophotometric kinase activity assay; format: biochemical
T3 construct: human c-Abl (residues 229-512); made in house
T3 sequence (P00519 229-512): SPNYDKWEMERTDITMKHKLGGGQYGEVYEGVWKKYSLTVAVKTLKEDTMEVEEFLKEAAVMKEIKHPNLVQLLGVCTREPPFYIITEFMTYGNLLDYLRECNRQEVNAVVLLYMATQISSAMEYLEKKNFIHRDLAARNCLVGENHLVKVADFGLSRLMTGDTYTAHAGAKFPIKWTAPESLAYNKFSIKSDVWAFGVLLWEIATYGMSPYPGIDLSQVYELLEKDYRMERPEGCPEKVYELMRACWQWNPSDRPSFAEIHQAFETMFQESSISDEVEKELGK
Text: as §1, §3, §4

[11] = target: T4, Lck (Mus musculus, UniProt P06240); experiment: as above; format: biochemical, murine
T4 construct: murine Lck (residues 227-509); made in house
T4 sequence (P06240 227-509): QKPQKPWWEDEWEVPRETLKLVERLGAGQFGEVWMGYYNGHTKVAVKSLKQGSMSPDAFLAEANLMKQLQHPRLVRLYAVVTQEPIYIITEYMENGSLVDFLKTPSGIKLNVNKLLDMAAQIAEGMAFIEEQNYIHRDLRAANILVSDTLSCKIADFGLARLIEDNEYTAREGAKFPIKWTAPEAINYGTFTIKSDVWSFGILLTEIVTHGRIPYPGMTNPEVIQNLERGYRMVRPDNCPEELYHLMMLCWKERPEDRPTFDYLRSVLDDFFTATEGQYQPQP
Text: as §1, §3, §4

[12] = target: HCK (Homo sapiens, UniProt P08631); experiment: as above; format: biochemical; parameters: Kinase domain constructs of human c-Abl (residues 229-512), chicken c-Src (residues 251-533 and residues 83-533), murine Lck (residues 227-509), and human Hck (residues 166-445); made in house
Sequence of HCK (P08631 262-515 limits assumed): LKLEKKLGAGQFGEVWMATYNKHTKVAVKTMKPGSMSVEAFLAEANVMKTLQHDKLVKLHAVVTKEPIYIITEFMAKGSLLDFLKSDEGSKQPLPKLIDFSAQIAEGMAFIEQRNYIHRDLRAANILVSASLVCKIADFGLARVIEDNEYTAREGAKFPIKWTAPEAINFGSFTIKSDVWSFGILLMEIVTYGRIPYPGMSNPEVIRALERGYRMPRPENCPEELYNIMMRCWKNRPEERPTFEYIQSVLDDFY
Text: as §1, §3, §4

[13] = 5 μM ATP, 100 μM Src optimal peptide
[14] = 10 or 100 μM macrocycle overnight
[15] = 5 μM ATP, 100 μM Src optimal peptide, listed as Macrocycle 1.2
[16] = 5 μM ATP, 300 μM Src optimal peptide
[17] = 250 μM ATP, 300 μM Src optimal peptide

## NC(=O)[C@@H]1CCCNC(=O)[C@H](Cc2ccc([N+](=O)[O-])cc2)NC(=O)[C@H](Cc2ccccc2)NC(=O)[C@H](CC2CCCCC2)NC(=O)/C=C/C(=O)N1 [MC4.2]
[1]
  inhibition of Src Thr338Ile gatekeeper mutant (in words): retained their inhibition potency
[2]; [13]
  IC50: 0.6 µM
[3]; [14]
  reduction of global phosphotyrosine levels (in words): modest reduction
[3]; overnight treatment, serum-free DMEM, read-out: EC50 of reduction of global phosphotyrosine levels
  EC50: > 100 µM
[4]
  increase in Src inhibition potency relative to parent macrocycle: > 10 fold
  IC50: 0.006 µM

## NCCOCCOCCNC(=O)[C@@H]1CCCCNC(=O)[C@H](Cc2ccc([N+](=O)[O-])cc2)NC(=O)[C@H](CC2CCCCC2)NC(=O)C[C@H](O)[C@H](CC2CCCCC2)NC(=O)/C=C\C(=O)N1 [cis-A10-B8-C11-D5]
[5]
  IC50: 3.4 µM
[6]; Akt3
  IC50: 8.7 µM and 8.4 µM
[7]
  IC50: 7.5 µM and 7.3 µM
[8]
  IC50: 6.1 µM

## NCCOCCOCCNC(=O)[C@@H]1CCCCNC(=O)[C@H](Cc2ccc([N+](=O)[O-])cc2)NC(=O)[C@H](Cc2ccco2)NC(=O)C[C@H](O)[C@H](CC2CCCCC2)NC(=O)/C=C\C(=O)N1 [cis-A10-B1-C11-D5]
[5]
  IC50: 6.4 µM and 6.5 µM
[6]; isolated kinase enzyme
  inhibition of Akt3 (in words): did not inhibit
[9]; 10 μM macrocycle
  increase of VEGFR2 enzyme activity: 70%
[9]; 100 μM compound
  increase of VEGFR2 enzyme activity: 300%
[7]; isolated kinase enzyme, non-DNA-linked form
  inhibition of Pim1 (in words): did not inhibit
[8]; isolated kinase enzyme
  inhibition of MAPKAPK2 (in words): did not inhibit

## CC(C)(C)n1nc(-c2ccc(Cl)cc2)c2c(N)ncnc21 [PP2, reference compound]
[3]; 10 μM
  reduction of global phosphotyrosine levels (in words): reduction of global phosphotyrosine to levels comparable with those observed in the cells transfected with empty vector

## NC(=O)[C@@H]1CCCNC(=O)[C@H](Cc2ccc([N+](=O)[O-])cc2)NC(=O)[C@H](Cc2ccc(F)cc2)NC(=O)[C@H](CC2CCCCC2)NC(=O)/C=C/C(=O)N1 [MC4.3]
[1]
  inhibition of Src Thr338Ile gatekeeper mutant (in words): retained their inhibition potency
[3]; [14]
  reduction of global phosphotyrosine levels (in words): higher levels of tyrosine phosphorylation inhibition
[4]
  Src inhibition relative to parent compound (in words): retained all of the parent compound activity

## O=C1/C=C\C(=O)N[C@@H](CC2CCCCC2)C(=O)N[C@@H](Cc2ccccc2)C(=O)N[C@@H](CCCNC(=O)c2cnccn2)C(=O)NCC[C@@H](C(=O)O)N1 [MC1.2]
[2]; [13]
  IC50: 0.07 µM
[2]; [15]
  IC50: ≤ 0.07 µM
[2]; [16]
  IC50: 0.12 µM
[2]; [17]
  IC50: 0.14 µM
[2]; Src optimal substrate peptide 100 to 300 μM
  increase in IC50 upon increasing substrate peptide 3-fold to 300 μM: 50%
[10]; [13]
  IC50: > 100 µM
[10]; [16]
  IC50: > 100 µM
[10]; [17]
  IC50: > 100 µM
[11]; [13]
  IC50: 4 µM
[11]; [15]
  IC50: ≤ 0.87 µM
[11]; [16]
  IC50: 1.9 µM
[11]; [17]
  IC50: 2.4 µM
[12]; [13]
  IC50: 0.36 µM
[12]; [15]
  IC50: ≤ 0.36 µM
[12]; [16]
  IC50: 0.46 µM
[12]; [17]
  IC50: 1 µM
[3]; 100 μM
  reduction of global tyrosine phosphorylation (in words): did not reduce global tyrosine phosphorylation
[4]
  increase in Src inhibition potency relative to parent macrocycle: > 150 fold
  IC50: ≤ 0.004 µM

## NCCOCCOCCNC(=O)[C@@H]1CNC(=O)[C@@H](Cc2ccc(C(=O)c3ccccc3)cc2)NC(=O)[C@H](CC2CCCCC2)NC(=O)[C@H](C/C=C/c2ccccc2)NC(=O)/C=C\C(=O)N1 [cis-A12-B8-C10-D8]
[5]
  IC50: 14 µM
[7]
  IC50: 17 µM
[8]
  IC50: 47 µM
